Measured values as given in PMC8229129, “Local Colonic Administration of a Serine Protease Inhibitor Improves Post-Inflammatory Visceral Hypersensitivity in Rats” (Pharmaceutics, 2021).

Assays:
[1] = Observation of side-effects after administration in pharmacokinetic experiments; format: in vivo; settings: rats, within 180 min after administration (1 mg/kg i.v. or 5 mg/kg intracolonic)
Protocol: To evaluate the pharmacokinetic properties of UAMC-00050, it was administered in male Sprague–Dawley rats (200–225 g) either colonically (5 mg/kg, in a volume of 200 µL 5% DMSO solution) or intravenously (1 mg/kg in a volume of 200 µL 5% DMSO solution). Plasma samples were collected after 5, 15, 30, 45, 60, 90, 120, and 180 min via the tail vein and stored at −80 °C until analysis.

[2] = system: visceral hypersensitivity in post-colitis rats; parameters: method as in PMID 29911328; settings: TNBS-induced post-inflammatory rats, intraperitoneally; cited from earlier work
[3] = system: kallikrein 4; parameters: method as in PMID 29911328; settings: in vitro; cited from earlier work
[4] = system: kallikrein 8; parameters: method as in PMID 29911328; settings: in vitro; cited from earlier work
[5] = system: colonic mucosal inflammation; test: Colonoscopic inflammatory score; format: in vivo, Sprague–Dawley rats; settings: for Colonoscopy, Day of VMR: score 0–19, mean ± SEM, n = 8
Protocol: An in vivo colonoscopy was performed to assess the presence and extent of TNBS-induced colitis, as previously described. Briefly, rats were anesthetized (ketamine/xylazine, 35/5 mg/kg, i.p.) and placed in a supine position. The lubricated tip of a pediatric upper gastrointestinal endoscope (Olympus GIF-N30) was carefully introduced into the colorectum and advanced until the hepatic flexure was reached. Then, the endoscope was slowly withdrawn while assessing the mucosal damage using a validated and standardized scoring system (Supplementary Table S1). In brief, a total inflammatory score (0–19) was calculated based on the extent of ulcerations, as well as on the presence of edema, bleeding, and colonic stenosis.

[6] = system: inflammatory infiltrate and mucosal architecture of distal colon; test: Microscopic score of the distal colon; format: in vivo, Sprague–Dawley rats; settings: for Microscopy, Day of VMR: score 0–10, mean ± SEM, n = 8
Protocol: For microscopic evaluation, a representative section of the distal colon (1 cm^2) was fixed in 4% formaldehyde for 24 h and embedded in paraffin for hematoxylin and eosin staining. Transverse sections (5 µm) were scored for the presence of inflammatory infiltrate and alterations in mucosal architecture, as previously described (total score 0–10, Supplementary Table S3).

[7] = target: chymotrypsin (Bos taurus, UniProt P00766); test: Inhibition of chymotrypsin by UAMC-00050 (IC50); format: biochemical; settings: in vitro
Protocol: Here, the potency of UAMC-00050 to inhibit two other serine proteases, chymotrypsin and pancreatic elastase, with specificity was determined.

[8] = system: trypsin-like, chymotrypsin-like, cathepsin G, elastase-like, and kallikrein activities in colon tissue; test: Proteolytic activities in colonic tissue of control rats after intracolonic administration; format: in vivo, Sprague–Dawley rats; settings: 5 mg/kg intracolonic
Protocol: (§1) The serine protease inhibitor UAMC-00050 (0.1–1.0–2.5–5.0 mg/kg, dissolved in a volume of 200 µL) or its vehicle (5% DMSO in H2O) was delivered colonically using a flexible catheter (18 G, length 4.5 cm) under short-lasting isoflurane anesthesia (5.0% induction, 1.5% maintenance). To prevent expulsion of the enema, animals were held in a Trendelenburg position for 90 s. Doses for intracolonic administration were based on the doses known to be effective via an i.p. administration and adapted afterwards based on preliminary results.
(§2) Trypsin-like, chymotrypsin-like, cathepsin G, elastase-like, and kallikrein activities were determined in colon tissue and fecal samples to profile serine protease activity. […]
(§3) Boc-Gln-Ala-Arg-AMC (75 µM) and n-Tosyl-Gly-Pro-Arg-AMC (100 µM) in 50 mM Tris-HCl pH 8.0 containing 120 mM NaCl were used to measure the trypsin-like activity. […] The fluorescence was measured during 20 min at 37 °C on a Tecan Infinite F200 Pro microtiter plate reader. The other activities were assessed in a similar assay, using the substrates mentioned below. Chymotrypsin-like and kallikrein activity were measured with Suc-Ala-Ala-Pro-Phe-AMC (0.45 mM) and H-Pro-Phe-Arg-AMC (0.45 mM), respectively. Elastase-like activity was measured using two assays, one using Suc-Ala-Ala-Pro-Val-AMC as a substrate and the other using Suc-Ala-Ala-Ala-AMC (both 0.45 mM). […]

[9] = system: chymotrypsin-like activity in colonic tissue; test: Chymotrypsin-like activity in colonic tissue after intracolonic administration (Suc-Ala-Ala-Pro-Phe-AMC); format: in vivo, Sprague–Dawley rats; settings: post-colitis rats, 5 mg/kg intracolonic, colon harvested 90 min after administration, median (IQR), n = 12; vehicle 1.54 (1.06), p < 0.05
Protocol: as §1, §2, §3

[10] = system: tryptase; parameters: method as in PMID 29911328; settings: in vitro; cited from earlier work
[11] = system: colonic mucosal damage; test: Macroscopic score of mucosal damage; format: in vivo, Sprague–Dawley rats; settings: for Macroscopy, Day of VMR: score 0–10, mean ± SEM, n = 8
Protocol: After VMR and compliance measurements, the rat was sacrificed by exsanguination under pentobarbital anesthesia (45 mg/kg, i.p.). The colon was excised, rinsed with Krebs solution, opened along the mesenteric border, and evaluated visually for the presence of mucosal damage using a previously validated scoring system (total score 0–10, Supplementary Table S2).

[12] = control rats, 5.0 mg/kg intracolonic
[13] = post-colitis rats, 0.1 mg/kg intracolonic
[14] = post-colitis rats, 1.0 mg/kg intracolonic
[15] = post-colitis rats, 2.5 mg/kg intracolonic
[16] = post-colitis rats, 5.0 mg/kg intracolonic
[17] = single intracolonic administration, control and post-colitis rats

## CC(=O)Nc1ccc(OP(=O)(Oc2ccc(NC(C)=O)cc2)C(Cc2ccc(N=C(N)N)cc2)NC(=O)OCc2ccccc2)cc1.Cl (centres unmarked) [UAMC-00050]
[1]
  Side-effects: No side-effects
[2]
  Dose required to obtain complete reversal of visceral hypersensitivity: 1.0 mg/kg
[3]
  inhibition of kallikrein 4: efficiently inhibits
[4]
  inhibition of kallikrein 8: efficiently inhibits
[5]; [12]
  Colonoscopy, Day of VMR: 0.0 ± 0.0
[5]; [13]
  Colonoscopy, Day of VMR: 0.0 ± 0.0
[5]; [14]
  Colonoscopy, Day of VMR: 0.0 ± 0.0
[5]; [15]
  Colonoscopy, Day of VMR: 0.0 ± 0.0
[5]; [16]
  Colonoscopy, Day of VMR: 0.0 ± 0.0
[5]; [17]
  Effect on colonoscopic inflammatory scores: no effect
[6]; [12]
  Microscopy, Day of VMR: 0.8 ± 0.4
[6]; [13]
  Microscopy, Day of VMR: 0.4 ± 0.4
[6]; [14]
  Microscopy, Day of VMR: 0.8 ± 0.4
[6]; [15]
  Microscopy, Day of VMR: 0.5 ± 0.4
[6]; [16]
  Microscopy, Day of VMR: 0.6 ± 0.4
[6]; [17]
  Effect on microscopic evaluation of mucosal damage: no effect
[7]
  IC50: > 10 µM
[8]
  Effect on proteolytic activities in colonic tissue: did not alter
[9]
  Chymotrypsin-like activity in colonic tissue: 0.84 (0.57) U/g
[10]
  inhibition of tryptase: efficiently inhibits
[11]; [12]
  Macroscopy, Day of VMR: 0.0 ± 0.0
[11]; [13]
  Macroscopy, Day of VMR: 0.0 ± 0.0
[11]; [14]
  Macroscopy, Day of VMR: 0.0 ± 0.0
[11]; [15]
  Macroscopy, Day of VMR: 0.0 ± 0.0
[11]; [16]
  Macroscopy, Day of VMR: 0.0 ± 0.0
[11]; [17]
  Effect on macroscopic evaluation of mucosal damage: no effect
